Measurements taken from the Deep4Chem optical property database.
One block for each compound: values may come before it.

Assay: solvent given as SMILES

SMILES: COc1c2ccccc2c(OC)c2c(C#Cc3ccccc3)c3cc4ccccc4cc3c(C#Cc3ccccc3)c12
absorption maximum (in ClCCl): 704 nm

SMILES: CC1(C)c2ccccc2N(c2ccc(-c3nnc(-c4ccccc4O)o3)cc2)c2ccccc21
absorption maximum (in C1CCOC1): 361 nm
absorption maximum (in C1COCCO1): 363 nm
absorption maximum (in CC#N): 358 nm
absorption maximum (in CC(C)=O): 361 nm
absorption maximum (in CCCCCC): 362 nm
absorption maximum (in CCO): 361 nm
absorption maximum (in CCOC(C)=O): 360 nm
absorption maximum (in CN(C)C=O): 360 nm
absorption maximum (in CS(C)=O): 364 nm
absorption maximum (in Cc1ccccc1): 362 nm
absorption maximum (in ClC(Cl)Cl): 365 nm
absorption maximum (in ClCCCl): 368 nm
absorption maximum (in ClCCl): 366 nm
absorption maximum (in Clc1ccccc1): 367 nm

SMILES: CC(C)(C)Nc1oc(C=Cc2ccccc2)c(C(=O)OC(C)(C)C)c1C(=O)OC(C)(C)C
absorption maximum (in CC#N): 384 nm

SMILES: CCCCCCCCc1ccc(-c2c3cc(-c4cc(CCCCCCCC)c(-c5ccc(-c6sc(/C=C7\SC(N8CCCCC8)=NC7=O)cc6CCCCCCCC)s5)s4)sc3c(-c3ccc(CCCCCCCC)s3)c3cc(-c4cc(CCCCCCCC)c(-c5ccc(-c6sc(/C=C7\SC(N8CCCCC8)=NC7=O)cc6CCCCCCCC)s5)s4)sc23)s1
absorption maximum (in ClC(Cl)Cl): 475 nm

SMILES: CC(C)(C)NC1=C2C=CC=[N+]2[B-](F)(F)n2cccc21
absorption maximum (in C1CCCCC1): 428 nm
absorption maximum (in CC(C)=O): 409.5 nm
absorption maximum (in CCO): 412.5 nm
absorption maximum (in CCOC(C)=O): 412 nm
absorption maximum (in CO): 410 nm
absorption maximum (in OCC(F)(F)F): 406 nm

SMILES: Cn1c(=O)c(/N=N/c2ccc(Nc3ccccc3)c(S(=O)(=O)O)c2)c(O)c2ccccc21
absorption maximum (in C1CCOC1): 412 nm
absorption maximum (in CC(C)=O): 407 nm
absorption maximum (in CCOC(C)=O): 411 nm
absorption maximum (in CO): 400 nm
absorption maximum (in CS(C)=O): 396 nm
absorption maximum (in Cc1ccccc1): 414 nm
absorption maximum (in ClCCl): 415 nm
absorption maximum (in O): 385 nm

SMILES: N#Cc1ccc(-c2ccc3c(c2)c2cc(-c4ccc(C#N)cc4)ccc2c2c3nc(-c3ccc(-c4ccc(N(c5ccccc5)c5ccccc5)cc4)cc3)n2-c2ccccc2)cc1
absorption maximum (in C1CCOC1): 360.44 nm
absorption maximum (in CC#N): 360.44 nm
absorption maximum (in CCCCCC): 370.05 nm
absorption maximum (in CCOCC): 366.21 nm

SMILES: c1ccc(-c2nc(-c3ccccc3)nc(-c3ccc(N4c5ccccc5C5(c6ccccc64)c4ccccc4C4(c6ccccc6Sc6ccccc64)c4ccccc45)cc3)n2)cc1
absorption maximum (in Cc1ccccc1): 394.63 nm

SMILES: O=c1ccc2cc3ccoc3cc2o1
absorption maximum (in CC(C)O): 298 nm
absorption maximum (in CCO): 299 nm
absorption maximum (in CCOCC): 294 nm
absorption maximum (in CO): 300 nm
absorption maximum (in O): 303 nm

SMILES: F[B-]1(F)n2c(Cl)c(Cl)c(Br)c2C(Cl)=C2C(Br)=C(Cl)C(Cl)=[N+]21
absorption maximum (in ClCCl): 546 nm

SMILES: Cc1cc(-n2c3ccccc3c3cc4c(cc32)C2c3ccccc3C4c3ccccc32)ccc1-c1nc(-c2ccccc2)nc(-c2ccccc2)n1
absorption maximum (in Cc1ccccc1): 367 nm

SMILES: CC1(C)c2ccccc2N(c2ccc(-c3cccc(C#N)c3)cc2)c2ccccc21
absorption maximum (in Cc1ccccc1): 344 nm

SMILES: c1ccc2c(c1)c1ccccc1n2-c1ccc(-c2ccn3nc(-c4ccc(-n5c6ccccc6c6ccccc65)cc4)nc3c2)cc1
absorption maximum (in C1CCOC1): 342 nm

SMILES: COc1ccc(-c2ccc(-c3ccc(C#N)cc3)cc2)cc1
absorption maximum (in C1CCCCC1): 305 nm

SMILES: c1ccc(-c2nc(-c3ccc(N(c4ccccc4)c4ccccc4)cc3)n3ccccc23)cc1
absorption maximum (in C1CCCCC1): 352 nm
absorption maximum (in CC#N): 350 nm
absorption maximum (in CO): 348 nm
absorption maximum (in ClCCl): 353 nm
absorption maximum (in O): 360 nm

SMILES: Fc1cc(-c2nc(-c3ccccc3)nc(-c3ccccc3)n2)ccc1-n1c2ccccc2c2c3c(ccc21)C1(c2ccccc2-c2ccccc21)c1ccccc1-3
absorption maximum (in Cc1ccccc1): 370 nm

SMILES: COc1ccc2cc(C3=[N+]4C(=Nc5c(-c6ccc7ccccc7c6)c(Br)c(-c6ccc7cc(OC)ccc7c6)n5[B-]4(F)F)C(c4ccc5ccccc5c4)=C3Br)ccc2c1
absorption maximum (in ClCCl): 698 nm

SMILES: C/C=C/c1ccc(OC)cc1
absorption maximum (in CCCCCC): 305 nm

SMILES: S=P1(c2ccccc2)c2cccc3c4c5ccccc5c5ccccc5c4c4ccc1n4c23 (stereo not given)
absorption maximum (in ClCCl): 422 nm

SMILES: CCCBr
absorption maximum (in CCCCCC): 208 nm

SMILES: N#CC1=CC(C#Cc2ccccc2)=CC(C#N)=P1(c1ccccc1)c1ccccc1
absorption maximum (in ClC(Cl)Cl): 489 nm

SMILES: Cc1cc(N2c3ccccc3C(C)(C)c3ccccc32)ccc1-c1cc(-c2ccc(N3c4ccccc4C(C)(C)c4ccccc43)cc2C)ncn1
absorption maximum (in Cc1ccccc1): 375.94 nm

SMILES: N#Cc1c(-c2ccc(N(c3ccccc3)c3ccccc3)cc2)c(C#N)c(-c2ccc(N(c3ccccc3)c3ccccc3)cc2)c(C#N)c1-c1ccc(N(c2ccccc2)c2ccccc2)cc1
absorption maximum (in O=P(c1ccccc1)(c1ccccc1)c1ccccc1Oc1ccccc1P(=O)(c1ccccc1)c1ccccc1): 420 nm

SMILES: CN1CCN(c2ccc3c4c(cccc24)C(=O)c2ccccc2-3)CC1
absorption maximum (in C1CCCCC1): 428.2 nm
absorption maximum (in C1CCOC1): 446 nm
absorption maximum (in C1COCCO1): 442.8 nm
absorption maximum (in CC1COC(=O)O1): 459 nm
absorption maximum (in CC#N): 453.8 nm
absorption maximum (in CC(C)=O): 449.6 nm
absorption maximum (in CCCCCCCCO): 451 nm
absorption maximum (in CCCCCO): 456.4 nm
absorption maximum (in CCCCO): 454.6 nm
absorption maximum (in CCCO): 455.4 nm
absorption maximum (in CCO): 455.4 nm
absorption maximum (in CCOC(C)=O): 443 nm
absorption maximum (in CN(C)C=O): 454.4 nm
absorption maximum (in CO): 456.4 nm
absorption maximum (in CS(C)=O): 460.8 nm
absorption maximum (in Cc1ccccc1): 443.8 nm
absorption maximum (in ClC(Cl)Cl): 455.4 nm

SMILES: c1ccc(-c2nc(-c3ccccc3)nc(-c3ccc(-n4c5ccccc5c5c6c(ccc54)-c4ccccc4C6(c4ccccc4)c4ccccc4)cc3)n2)cc1
absorption maximum (in Cc1ccccc1): 372 nm

SMILES: CCCCCCCCCn1c(-c2cc(-c3nc4ccccc4n3CCCCCCCCC)cc(-c3nc4ccccc4n3CCCCCCCCC)c2)nc2ccccc21
absorption maximum (in ClCCl): 300 nm

Further lines, results first:

absorption maximum (in C1CCCCC1): 366 nm
SMILES: CCn1c2ccccc2c2ccc(C#N)cc21

absorption maximum (in ClCCl): 449 nm
SMILES: CN(C)c1ccc(C2=CC3=C(c4ccc(C=O)cc4)[C@H]4c5ccccc5[C@]3(S2)c2ccccc24)cc1

absorption maximum (in ClC(Cl)Cl): 521 nm
SMILES: Cc1ccc(N(c2ccc(C)cc2)c2ccc(-c3ccc(C=C(C#N)C#N)o3)cc2)cc1

absorption maximum (in CCO): 344 nm
SMILES: O=c1c2cc(F)c(N3CCOCC3)cc2oc2cc(N3CCOCC3)c(F)cc12

absorption maximum (in ClCCl): 402 nm
SMILES: COc1cc(OC)cc(C2=[O+][B-](F)(F)OC(c3ccc4ccccc4c3)=C2)c1

absorption maximum (in CCOC(C)=O): 513 nm
SMILES: O=[N+]([O-])c1cc(/N=N/c2cc3c4c(c2)CCCN4CCC3)cc([N+](=O)[O-])c1

absorption maximum (in ClC(Cl)Cl): 470 nm
SMILES: Cc1c2c(c(C)c3ccccc13)C1=CC3Nc4ccccc4NC3C=C12 (stereo not given)

absorption maximum (in CCCCCC): 608 nm
absorption maximum (in CCCCCCCCO): 612 nm
absorption maximum (in CCOC(C)=O): 606 nm
absorption maximum (in CN(C)C=O): 612 nm
absorption maximum (in ClCCl): 612 nm
SMILES: CC1=CC(C)=[N+]2C1=Cc1c3ccccc3c(C#Cc3ccccc3)n1[B-]2(F)F

absorption maximum (in ClCCl): 414 nm
SMILES: CN(C)c1ccc(C#Cc2nc(-c3ccccc3)nc3ccccc23)cc1

absorption maximum (in ClC(Cl)Cl): 332 nm
SMILES: CCCCn1c2ccccc2c2ccc3c4cc(-c5ccc6ccccc6c5)ccc4n(CCCC)c3c21

absorption maximum (in ClC(Cl)Cl): 848 nm
SMILES: CC1=c2cc3c(cc2=[N+]2C1=Cc1c4ccccc4c(C)n1[B-]2(F)F)C1=Cc2c4ccccc4c(C)n2[B-](F)(F)[N+]1=C3C

absorption maximum (in C1CCCCC1): 563.5 nm
absorption maximum (in CC#N): 553 nm
absorption maximum (in CCO): 559 nm
absorption maximum (in CCOC(C)=O): 556.5 nm
absorption maximum (in CO): 557.5 nm
absorption maximum (in OCC(F)(F)F): 553 nm
SMILES: Cc1ccc(C2=C3C=C(I)C=[N+]3[B-](F)(F)n3c2cc(I)c3I)cc1

absorption maximum (in ClCCl): 442 nm
SMILES: CCN(CC)c1ccc2cc(-c3nc4cc(C(=O)Nc5ccccc5)ccc4o3)c(=O)oc2c1

absorption maximum (in CCO): 440 nm
SMILES: CC(C)(C)OC(=O)NC(Cc1ccccc1)C(=O)OCc1ccc2c3cccc4cccc(c5cccc1c52)c43 (stereo not given)

absorption maximum (in CCO): 361 nm
SMILES: CCN(CC)c1cc(F)c(C(=O)c2cc(F)c(F)cc2F)cc1F

absorption maximum (in CCO): 378 nm
SMILES: COc1cc(OC)cc(C(=O)OCc2c(C)c(=O)n3c(=O)c(C)c(C)n23)c1

absorption maximum (in CCO): 319 nm
SMILES: CCOC(=O)c1cc(C(=O)OCC)c2ccccc2n1

absorption maximum (in ClCCl): 537 nm
SMILES: Cc1cc(C)c(C2=C3C=C(/C=C/C(=O)OCc4ccccc4)C=[N+]3[B-](F)(F)n3cccc32)c(C)c1

absorption maximum (in C1COCCO1): 378 nm
SMILES: COc1ccc(C2=N/C(=C\c3ccccc3)C(=O)O2)cc1OC

absorption maximum (in CN(C)C=O): 575 nm
absorption maximum (in ClC(Cl)Cl): 575 nm
SMILES: O=C1C2=C3c4ccsc4C=CN3C(=O)C2=C2c3ccsc3C=CN12

absorption maximum (in ClCCl): 438 nm
SMILES: CCCCN(CCCC)c1ccc(C#Cc2cc(C#Cc3ccc(C(F)(F)F)cc3)c(C#Cc3ccc(N(CCCC)CCCC)cc3)cc2C#Cc2ccc(C(F)(F)F)cc2)cc1

absorption maximum (in ClCCl): 431 nm
SMILES: CCCCCCCCCCCCN1C(=O)c2c(c3ccc4cc(-c5ccc(F)cc5)c(OC)cc4c3c3c2ccc2cc(-c4ccc(F)cc4)c(OC)cc23)C1=O

absorption maximum (in CO): 356 nm
absorption maximum (in ClCCl): 362 nm
SMILES: CCCCCCN(CCCCCC)c1ccc(C#Cc2ccc(C(F)(F)F)cc2)cc1

absorption maximum (in CC#N): 390 nm
SMILES: Cc1c2ccc3c(C)[n+](C)ccc3c2cc[n+]1C

absorption maximum (in CC#N): 418 nm
SMILES: CCCCCCCCCC[n+]1cc2ccc3c[n+](CCCCCCCCCC)cc4ccc(c1)c2c34

absorption maximum (in ClCCl): 324 nm
SMILES: COC(=O)c1c(-c2cc3ccccc3oc2=O)nn(-c2cccc(C)c2)c1C(=O)OC

absorption maximum (in CC#N): 525 nm
absorption maximum (in CCO): 526 nm
absorption maximum (in CN(C)C=O): 535 nm
absorption maximum (in O): 550 nm
SMILES: CCN(CC)c1ccc2cc3ccc(=[N+](CC)CC)cc-3oc2c1

absorption maximum (in ClCCl): 388 nm
SMILES: CCOC(=O)/N=c1/oc2ccc(OC)cc2cc1C#N

absorption maximum (in ClC(Cl)Cl): 377 nm
SMILES: CC(C)(C)NC(=O)c1ccc2ccc3cccc4ccc1c2c34

absorption maximum (in CS(C)=O): 358 nm
SMILES: CCOC(=O)C1=C(N)n2c(=O)c3ccccc3c(=O)n2C1c1ccc([N+](=O)[O-])cc1 (stereo not given)

absorption maximum (in C1CCOC1): 475 nm
SMILES: FC(F)(F)C(F)(F)C(F)(F)C1=NC2=C(Br)C=C3c4cc(Br)c5nc(C(F)(F)C(F)(F)C(F)(F)F)nc6c(Br)cc(c4c56)=C4C=C(Br)C(=N1)C2C34 (stereo not given)

absorption maximum (in CC#N): 396 nm
absorption maximum (in ClCCl): 398 nm
SMILES: COC(=O)c1cc(=O)n(C)c2cc(-c3ccc(Oc4ccccc4)cc3)sc12
